The subject of data set [1] is UACC-903, a G124A mutant melanoma cell line. In words: Viability of G124A mutant melanoma cells. The following applies: 72 h. Type of data set: cell-based, human. How it is done:
FIGS. 13A-13C are a set of graphs showingselective reduction in viability (A) and hTERT expression (B) in melanoma cells carrying hTERT core promotor mutations. NHM-002 (normal human melanocytes) and a G124A mutant cell line were treated with vehicle, 1.25, 2.5, and 5 μM GTC365 for 72 h. Viability was reduced in hTERT mutant melanoma cells by 50% (left). […] (C) Differential response to GTC365 in WT and promoter mutant cell lines.
Next, to assess the selectivity of GTC365 for hTERT-dependent cancer cells relative to normal precursorcells, we compared the effects of a range of […] on viability at 72 h in normal humanmelanocytes (NHM-002) relative to those of UACC-903, aG124A mutant (FIG. 13A). […] To confirm that the reduction in cell viability was aresult of hTERT downregulation, we performed reverse transcription and qPCR to measure the mRNA level of hTERT expression in cells treated with DMSO or 5 μMGTC365. hTERT expression was reduced by 41% in themelanoma cell line after 72 h but was undetectable in normalmelanocytes, even in the absence of GTC365 (FIG. 13B). Finally, tobroadly assess the selectivity of GTC365 for hTERT promotermutant versus WT cells, we conducted a 6-point 72 h MTSproliferation assay to determine EC50s in 14 additional melanoma cell lines with characterized TERT promoter status([…]) (FIG. 13C). […]

The next data set has as its system MCF7 cells. In words: Senescence β-galactosidase assay. Type of data set: cell-based, human. Conditions: 0.5 μM, 5-10 days. The protocol:
Senescence β-galactosidase assay. A colorimetric β-galactosidase assay was performed. Briefly, compound-treated MCF7 cells were fixed in 2% formaldehyde and 0.2% glutaraldehyde for 5 min at room temperature. Fixed cells were incubated with staining solution containing 40 mM citric acid (pH 6.0), 5 mM potassium ferrocyanide, 5 mM potassium ferricyanide, 150 mM NaCl, and 2 mM MgCl2 and 1 mg/ml X-gal (Fermentas R0401) for 7 h at 37° C. Stained cells were washed with D-PBS and methanol and subsequently dried in air.
Since senescence is one of the outcomes resulting from loss of telomere length, this was measured by the associated overexpression of lysosomal β-galactosidase, which releases indigo (blue dye) from X-gal. In addition, the cell morphology will also be dramatically changed so that cells appear to be flat and enlarged. […] Abnormal phenotypes such as bridges connecting two adjacent cells and multinucleated cells were also observed in GTC365-treated cells. hTERT is known to localize to mitotic spindles and centromeres and regulate the expression of genes involved in heterochromatin maintenance. In addition, there is alteration of expression of some proteins involved in collagen synthesis or tubulin organization by hTERT transfection.

Data set [2] relates to G124/125A mutant hTERT 5-12 fragment. Briefly: Single-molecule laser tweezer unfolding, G124/125A mutant. Type of data set: biochemical, human. Conditions: 2 μM, 10 mM Tris, 100 mM KCl, pH 7.4; single- and double-stranded template. The protocol: Single-molecule tweezer. Preparation of the DNA construct. The DNA construct that contains the single-stranded hTERT 5-12 fragment was prepared by sandwiching the target sequence between two double-stranded DNA handles. Five deoxythymidines were added at both ends of the hTERT 5-12 fragment to reduce the interference from the double-stranded DNA handles on the target sequence. Briefly, the 2690-base-pair double-stranded DNA handle was prepared through restriction enzyme digestion of the pEGFP vector (Clontech, Mountain View, Calif.). In the first step, the vector was digested by Sad and Eagl restriction enzymes, followed by purification with agarose gel. The EagI end of the DNA fragment was labeled with digoxigenin using terminal deoxynucleotidyl transferase. […]
Single-molecule force-ramp assay. […] After this, the two beads were moved apart to increase the tension on the DNA tether with a loading rate of 5.5 pN/s, and the force-extension (F-X) curves were recorded using the LabVIEW program (National Instruments Corp., Austin, Tex.).
The F-X curves were filtered by Savitzky-Golay function with a 10 ms time constant in the MATLAB program (The Math Works, Natick, Mass.). […] The change-in-contour length (ΔL) was calculated based on the Δx through the worm-like chain model (equation 1). […]

With `N=C(N)NCCCS(=O)(=O)Nc1ccc(Nc2c3ccccc3nc3cc([N+](=O)[O-])ccc23)cc1` [GTC365], the viability entry in data set [1] (5 μM) was “below 50%”. For the same compound, the reduction of viability in data set [1] (hTERT mutant melanoma cells, up to 5 μM) is reported as 50%. Further, the “senescence-like phenotype (β-galactosidase staining, morphology)” value in the data set with MCF7 cells is reported as “distinct senescence-like phenotype (SLP)”. Further, in data set [2], the “full-length G-rich species (>36 nt/bp) population” value is “recovered”.
